Reference: patent publication US20260015333A1, “COMPOUNDS AND METHODS FOR INHIBITION OF THE EVOLUTION OF […]” (priority 2022, published 2026)

What was measured:
S. typhimurium = test: Growth curves with increasing concentrations of ARM-1; type: cell-based
Method: (§1) FIG. 10 depicts growth curves of indicated species in the presence of increasing concentrations of ARM-1. Precultures of each species were grown with appropriate antibiotic selection, then diluted back to OD600 0.05 in a 96 well plate. Indicated concentrations of ARM-1 were added, and plates incubated overnight at 37° C. with shaking. OD measurements taken every 60 s by BioTek plate reader. Data shown are representative of at least 6 biological replicates. Growth curve for S. typhimurium also confirms MIC of 400 μM ARM-1 for this species, with no growth observed over the experimental timeframe.

all species tested = test: as above; type: cell-based; conditions: across all species tested
Method: as §1

E. coli RNAP = target: T1, E. coli RNAP (Escherichia coli, UniProt P0A7Z4+P0A800+P0A8T7+P0A8V2); test: RNAP displacement assay, control reactions in the absence of Mfd; type: biochemical; conditions: RNAP with 12.5 μM ARM-1, no Mfd
T1 construct: purchased NEB
T1 sequence (P0A7Z4 whole entry): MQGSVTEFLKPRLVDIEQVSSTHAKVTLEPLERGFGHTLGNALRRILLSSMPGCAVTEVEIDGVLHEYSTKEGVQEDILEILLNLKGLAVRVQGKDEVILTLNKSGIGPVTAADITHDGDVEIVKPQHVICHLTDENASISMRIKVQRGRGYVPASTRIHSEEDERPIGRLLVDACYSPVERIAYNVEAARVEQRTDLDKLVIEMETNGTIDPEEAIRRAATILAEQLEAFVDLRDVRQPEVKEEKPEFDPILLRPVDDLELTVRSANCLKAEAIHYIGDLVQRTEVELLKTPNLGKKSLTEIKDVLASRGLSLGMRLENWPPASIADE
T1 sequence (P0A8V2 whole entry): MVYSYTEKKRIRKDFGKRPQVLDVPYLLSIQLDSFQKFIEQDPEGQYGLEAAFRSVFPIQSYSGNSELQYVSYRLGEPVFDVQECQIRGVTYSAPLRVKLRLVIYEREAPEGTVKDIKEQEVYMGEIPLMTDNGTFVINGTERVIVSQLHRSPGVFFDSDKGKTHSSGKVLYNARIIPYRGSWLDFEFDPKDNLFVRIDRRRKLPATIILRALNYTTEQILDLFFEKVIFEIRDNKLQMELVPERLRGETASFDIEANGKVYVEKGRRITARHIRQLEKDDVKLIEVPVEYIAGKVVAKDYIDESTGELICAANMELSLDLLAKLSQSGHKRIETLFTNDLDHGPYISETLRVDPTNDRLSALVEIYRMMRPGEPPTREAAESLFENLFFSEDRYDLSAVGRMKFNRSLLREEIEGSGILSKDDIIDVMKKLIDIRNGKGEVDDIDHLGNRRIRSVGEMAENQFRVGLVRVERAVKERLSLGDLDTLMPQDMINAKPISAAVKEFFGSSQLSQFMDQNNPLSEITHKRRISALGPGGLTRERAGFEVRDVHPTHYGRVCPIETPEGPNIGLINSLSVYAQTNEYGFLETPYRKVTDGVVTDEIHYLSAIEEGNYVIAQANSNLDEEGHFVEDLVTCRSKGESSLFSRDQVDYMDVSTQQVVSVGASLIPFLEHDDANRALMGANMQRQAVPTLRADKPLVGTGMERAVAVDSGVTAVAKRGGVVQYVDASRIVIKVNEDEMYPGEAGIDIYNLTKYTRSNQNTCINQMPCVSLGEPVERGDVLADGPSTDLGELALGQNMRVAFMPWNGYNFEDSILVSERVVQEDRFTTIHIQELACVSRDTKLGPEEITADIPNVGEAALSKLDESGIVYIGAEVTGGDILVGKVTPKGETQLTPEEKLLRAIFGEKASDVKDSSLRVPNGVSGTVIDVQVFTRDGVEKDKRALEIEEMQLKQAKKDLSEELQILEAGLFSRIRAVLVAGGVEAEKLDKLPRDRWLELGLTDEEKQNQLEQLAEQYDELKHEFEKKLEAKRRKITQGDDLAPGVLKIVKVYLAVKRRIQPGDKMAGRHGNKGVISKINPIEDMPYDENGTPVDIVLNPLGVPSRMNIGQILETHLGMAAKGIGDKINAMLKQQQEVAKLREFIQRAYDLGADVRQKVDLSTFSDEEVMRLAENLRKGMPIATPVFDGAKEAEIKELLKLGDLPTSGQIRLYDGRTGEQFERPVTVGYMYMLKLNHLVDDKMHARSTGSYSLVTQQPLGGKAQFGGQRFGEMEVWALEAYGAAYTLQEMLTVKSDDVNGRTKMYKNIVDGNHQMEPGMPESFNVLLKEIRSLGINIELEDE
T1 sequence (P0A800 2-91): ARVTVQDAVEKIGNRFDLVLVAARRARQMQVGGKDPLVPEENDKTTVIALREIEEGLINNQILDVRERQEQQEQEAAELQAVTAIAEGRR
T1 sequence (P0A8T7 whole entry): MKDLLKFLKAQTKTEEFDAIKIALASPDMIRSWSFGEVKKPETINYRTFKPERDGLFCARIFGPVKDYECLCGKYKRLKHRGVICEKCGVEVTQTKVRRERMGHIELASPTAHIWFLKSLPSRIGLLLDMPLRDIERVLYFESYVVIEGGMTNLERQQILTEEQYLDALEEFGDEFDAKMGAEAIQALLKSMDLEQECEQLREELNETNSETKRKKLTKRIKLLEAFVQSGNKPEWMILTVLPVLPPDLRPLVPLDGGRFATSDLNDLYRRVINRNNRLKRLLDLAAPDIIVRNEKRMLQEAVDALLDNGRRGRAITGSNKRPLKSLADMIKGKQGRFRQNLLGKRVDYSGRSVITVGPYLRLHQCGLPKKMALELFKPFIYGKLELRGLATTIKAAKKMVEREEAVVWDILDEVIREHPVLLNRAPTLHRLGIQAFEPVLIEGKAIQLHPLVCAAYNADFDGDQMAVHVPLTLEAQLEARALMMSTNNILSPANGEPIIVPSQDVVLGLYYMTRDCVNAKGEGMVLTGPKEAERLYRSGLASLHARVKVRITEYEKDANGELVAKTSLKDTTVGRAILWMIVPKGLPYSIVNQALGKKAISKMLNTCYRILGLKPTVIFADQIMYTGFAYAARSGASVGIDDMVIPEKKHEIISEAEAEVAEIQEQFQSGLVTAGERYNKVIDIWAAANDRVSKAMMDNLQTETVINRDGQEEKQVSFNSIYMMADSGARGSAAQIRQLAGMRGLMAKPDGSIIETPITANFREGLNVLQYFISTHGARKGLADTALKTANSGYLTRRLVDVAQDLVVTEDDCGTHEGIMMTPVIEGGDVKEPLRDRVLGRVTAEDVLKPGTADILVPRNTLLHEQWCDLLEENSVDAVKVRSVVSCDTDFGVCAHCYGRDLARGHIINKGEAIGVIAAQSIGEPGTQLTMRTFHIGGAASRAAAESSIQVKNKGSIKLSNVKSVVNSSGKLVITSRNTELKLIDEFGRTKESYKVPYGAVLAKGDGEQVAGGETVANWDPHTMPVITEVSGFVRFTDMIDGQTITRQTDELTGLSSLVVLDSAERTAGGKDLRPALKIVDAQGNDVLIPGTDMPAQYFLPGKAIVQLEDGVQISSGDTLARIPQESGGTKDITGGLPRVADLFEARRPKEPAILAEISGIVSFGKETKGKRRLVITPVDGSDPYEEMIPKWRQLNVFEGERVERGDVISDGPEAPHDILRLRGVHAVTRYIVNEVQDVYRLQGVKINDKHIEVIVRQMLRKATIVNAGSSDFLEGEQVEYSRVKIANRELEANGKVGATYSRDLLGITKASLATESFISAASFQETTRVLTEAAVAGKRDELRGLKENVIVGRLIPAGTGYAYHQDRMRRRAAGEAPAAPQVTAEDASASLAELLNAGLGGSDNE
Method: (§2) FIGS. 2A-2D depict how ARM-1 affects Mfd's biochemical activity. FIG. 2A depicts how the kd of ARM-1 was determined using microscale thermophoresis. Data shown represent a minimum of three independent experiments. FIG. 2B depicts a NADH-coupled ATPase assay. ATP hydrolysis by Mfd was coupled to NADH oxidation. Phosphoenolpyruvate is converted to pyruvate by pyruvate kinase, transferring a phosphate group onto ADP, which is only present in the reaction following ATP hydrolysis by Mfd. Pyruvate is then converted to lactate by lactate dehydrogenase, oxidizing NADH to NAD^+. Absorbance at 340 nm by NADH is used to monitor the reaction. Data shown represent a minimum of 3 biological replicates. FIG. 2C depicts a transcription roadblock assay. A P32-labled 176 bp PCR fragment was incubated with E. coli RNAP along with saturating concentrations of ATP, GTP, and UTP. 100 nM S. typhimurium ST19 Mfd preincubated with indicated concentrations of ARM-1 was added and the reaction allowed to proceed for 6 minutes. DNA products were then resolved on a polyacrylamide gel and analyzed by phosphorimaging. […] Quantification of these gels is shown below each lane. […]
Mfd translocates along double-stranded DNA and dislodges stalled RNAP complexes. […] When quantified, a ratio of EC to IC of approximately 1 was observed, which was consistent with prior work. […]

Mfd = Mfd (Salmonella typhimurium, UniProt Q8ZQ01); test: biochemical; design: species or system S. typhimurium
Sequence of Mfd (Q8ZQ01 entry or part of it): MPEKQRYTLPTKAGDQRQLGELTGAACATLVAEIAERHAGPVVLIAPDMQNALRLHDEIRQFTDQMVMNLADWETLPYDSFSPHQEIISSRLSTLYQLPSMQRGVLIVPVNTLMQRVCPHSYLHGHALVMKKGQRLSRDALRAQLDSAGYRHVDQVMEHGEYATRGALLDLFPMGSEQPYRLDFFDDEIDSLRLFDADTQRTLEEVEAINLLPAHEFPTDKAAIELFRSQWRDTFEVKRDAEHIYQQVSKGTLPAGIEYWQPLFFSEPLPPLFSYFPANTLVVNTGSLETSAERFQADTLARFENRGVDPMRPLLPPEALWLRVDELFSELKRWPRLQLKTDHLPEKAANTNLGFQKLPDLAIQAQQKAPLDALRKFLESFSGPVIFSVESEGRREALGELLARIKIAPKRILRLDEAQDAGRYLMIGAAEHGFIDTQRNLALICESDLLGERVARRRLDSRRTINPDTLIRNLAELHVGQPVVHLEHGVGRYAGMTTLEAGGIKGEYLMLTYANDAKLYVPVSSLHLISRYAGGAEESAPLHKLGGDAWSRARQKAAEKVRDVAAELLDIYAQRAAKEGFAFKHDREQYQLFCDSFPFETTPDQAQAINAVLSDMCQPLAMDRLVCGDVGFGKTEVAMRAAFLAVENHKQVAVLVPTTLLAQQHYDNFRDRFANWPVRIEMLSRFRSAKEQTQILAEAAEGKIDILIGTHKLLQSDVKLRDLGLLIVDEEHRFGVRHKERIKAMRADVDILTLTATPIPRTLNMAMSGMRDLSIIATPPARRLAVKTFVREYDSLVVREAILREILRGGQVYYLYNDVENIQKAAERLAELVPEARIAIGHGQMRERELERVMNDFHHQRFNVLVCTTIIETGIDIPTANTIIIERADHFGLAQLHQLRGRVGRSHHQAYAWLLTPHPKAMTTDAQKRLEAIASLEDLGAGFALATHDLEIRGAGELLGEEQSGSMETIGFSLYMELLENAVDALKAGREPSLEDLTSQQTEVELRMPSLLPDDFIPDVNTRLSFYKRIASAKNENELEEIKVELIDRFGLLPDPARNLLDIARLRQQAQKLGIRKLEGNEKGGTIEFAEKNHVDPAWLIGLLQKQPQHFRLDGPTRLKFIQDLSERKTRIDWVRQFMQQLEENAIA
Method: as §2
ATPase assays were performed as described in Kiiansita et al., 2003. […] To start reaction, varying quantities of ATP were added and absorbance at 340 nm was measured every 60 seconds for 1 hour in an Epoch2 microplate spectrophotometer (BioTek). […]

Cc1cc(Br)ccc1-c1ccc(CNCCCN(C)C)o1 [ARM-1, N^1-((5-(4-bromo-2-methylphenyl)furan-2-yl)methyl)-N^3,N^3-dimethylpropane-1,3-diamine]
MIC (S. typhimurium; Salmonella enterica, TYPHIMURIUM, growth curve, no growth observed over the experimental timeframe): 400 µM | growth defects (S. typhimurium; at the ARM-1 concentrations used for ChIP): no growth defects | doubling time, treated versus untreated population (all species tested): consistent | changes on RNAP complexes in the absence of Mfd (E. coli RNAP): did not have any detectable changes | ATP hydrolysis by Mfd (Mfd; 6.25 μM to 50 μM ARM-1, ratios of 125 to 1000 ARM-1 per Mfd): dose dependent increase | fold induction at 50 µM (Mfd; 50 μM ARM-1, read-out: ATPase activity enhancement): ~3
